Values quoted from earlier work in US10045960B2, “Coating composition and medical device” (TERUMO KABUSHIKI KAISHA, priority 2012, dated 2018).

Conditions: hydropathy index according to Kyte and Doolittle, J. Mol. Biol., 157, 105-132 (1982)
In the case of NC(=O)C[C@H](N)C(=O)O [Asparagine], the “H.I. (hydropathy index)” value is listed as −3.5. In the case of N[C@@H](Cc1c[nH]c2ccccc12)C(=O)O [Tryptophan], the “H.I. (hydropathy index)” value is listed as −0.9. In the case of CSCC[C@H](N)C(=O)O [Methionine], the “H.I. (hydropathy index)” value is listed as 1.9. In the case of N[C@@H](CCC(=O)O)C(=O)O [Glutamic acid], the “H.I. (hydropathy index)” value is listed as −3.5. For N[C@@H](Cc1ccc(O)cc1)C(=O)O [Tyrosine], the “H.I. (hydropathy index)” value is given as −1.3. In the case of N[C@@H](CO)C(=O)O [Serine], the “H.I. (hydropathy index)” value is listed as −0.8. In the case of NCCCC[C@H](N)C(=O)O [Lysine], the “H.I. (hydropathy index)” value is given as −3.9. For CC(C)[C@H](N)C(=O)O [Valine], the “H.I. (hydropathy index)” value is given as 4.2. In the case of N[C@@H](Cc1ccccc1)C(=O)O [Phenylalanine], the “H.I. (hydropathy index)” value is listed as 2.8. In the case of N[C@@H](CC(=O)O)C(=O)O [Aspartic acid], the “H.I. (hydropathy index)” value is listed as −3.5. For N[C@@H](CS)C(=O)O [Cysteine], the “H.I. (hydropathy index)” value is given as 2.5. In the case of N[C@@H](Cc1c[nH]cn1)C(=O)O [Histidine], the “H.I. (hydropathy index)” value is given as −3.2. In the case of CC[C@H](C)[C@H](N)C(=O)O [Isoleucine], the “H.I. (hydropathy index)” value is listed as 4.5. For N=C(N)NCCC[C@H](N)C(=O)O [Arginine], the “H.I. (hydropathy index)” value is listed as −4.5. For C[C@@H](O)[C@H](N)C(=O)O [Threonine], the “H.I. (hydropathy index)” value is listed as −0.7. For C[C@H](N)C(=O)O [Alanine], the “H.I. (hydropathy index)” value is listed as 1.8.
